Laboratory results as given in ChEMBL document CHEMBL5137112, “Semisynthetic Transformations on (+)-Boldine Reveal a 5-HT2A/2CR Antagonist” (J Nat Prod, 2022).

Assays:
[1] = organism: Homo sapiens; test: Selectivity ratio of Ki for 5-HT2A receptor (unknown origin) to Ki for 5-HT2B receptor (unknown origin)
[2] = biological target: Serotonin 2 receptors; 5-HT2a & 5-HT2c (Homo sapiens) (UniProt P28223+P28335); test: Selectivity ratio of Ki for 5-HT2A receptor (unknown origin) to Ki for 5-HT2C receptor (unknown origin); assay type: protein assay
[3] = biological target: T1, 5-hydroxytryptamine receptor 2C (Homo sapiens, UniProt P28335); test: Displacement of [3H]Mesulergine from 5-HT2C receptor (unknown origin) assessed as inhibition constant incubated for 90 mins by MicroBeta scintillation counting method
T1 sequence (P28335 whole entry): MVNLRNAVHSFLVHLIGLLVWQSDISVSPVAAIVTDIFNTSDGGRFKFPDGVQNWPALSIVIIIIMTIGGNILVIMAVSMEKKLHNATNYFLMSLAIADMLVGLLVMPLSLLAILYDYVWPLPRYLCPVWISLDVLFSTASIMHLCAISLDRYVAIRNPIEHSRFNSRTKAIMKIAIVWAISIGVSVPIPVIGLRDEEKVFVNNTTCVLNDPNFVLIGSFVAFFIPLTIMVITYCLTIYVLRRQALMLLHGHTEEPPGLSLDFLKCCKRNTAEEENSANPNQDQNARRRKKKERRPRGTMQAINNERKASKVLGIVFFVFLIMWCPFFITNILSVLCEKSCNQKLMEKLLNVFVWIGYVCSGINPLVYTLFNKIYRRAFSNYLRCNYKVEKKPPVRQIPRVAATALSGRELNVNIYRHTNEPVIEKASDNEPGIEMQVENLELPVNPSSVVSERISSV

[4] = biological target: T2, 5-hydroxytryptamine receptor 2B (Homo sapiens, UniProt P41595); test: Displacement of [3H]LSD from 5-HT2B receptor (unknown origin) assessed as inhibition constant incubated for 90 mins by MicroBeta scintillation counting method
[5] = organism: Homo sapiens; test: Selectivity ratio of Ki for 5-HT2B receptor (unknown origin) to Ki for 5-HT2C receptor (unknown origin)
[6] = biological target: T3, 5-hydroxytryptamine receptor 2A (Homo sapiens, UniProt P28223); test: Displacement of [3H]Ketanserin from 5-HT2A receptor (unknown origin) assessed as inhibition constant incubated for 90 mins by MicroBeta scintillation counting method
[7] = biological target: T3, 5-hydroxytryptamine receptor 2A; test: Antagonist activity at 5-HT2A receptor (unknown origin) incubated for 60 mins followed by 10 mins incubation in dark at room temperature by FLIPR method; assay type: functional
[8] = biological target: T2, 5-hydroxytryptamine receptor 2B; test: Antagonist activity at 5-HT2B receptor (unknown origin) incubated for 60 mins followed by 10 mins incubation in dark at room temperature by FLIPR method; assay type: functional
[9] = biological target: T1, 5-hydroxytryptamine receptor 2C; test: Antagonist activity at 5-HT2C receptor (unknown origin) incubated for 60 mins followed by 10 mins incubation in dark at room temperature by FLIPR method; assay type: functional

T3 sequence (P28223 whole entry): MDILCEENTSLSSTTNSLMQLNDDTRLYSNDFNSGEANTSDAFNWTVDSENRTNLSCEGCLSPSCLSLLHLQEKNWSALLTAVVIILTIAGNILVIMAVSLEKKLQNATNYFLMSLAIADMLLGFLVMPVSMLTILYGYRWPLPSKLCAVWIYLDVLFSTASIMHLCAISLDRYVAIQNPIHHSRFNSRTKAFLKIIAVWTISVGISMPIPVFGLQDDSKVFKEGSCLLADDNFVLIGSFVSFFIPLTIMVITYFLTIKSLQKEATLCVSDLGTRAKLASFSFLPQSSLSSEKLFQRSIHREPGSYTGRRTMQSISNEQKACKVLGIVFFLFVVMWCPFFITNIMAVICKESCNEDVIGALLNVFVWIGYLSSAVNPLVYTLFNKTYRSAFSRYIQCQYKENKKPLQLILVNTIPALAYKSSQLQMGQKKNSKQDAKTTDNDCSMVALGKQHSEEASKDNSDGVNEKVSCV
Serotonin 2 receptors; 5-HT2a & 5-HT2c (Homo sapiens), sequence (P28223 whole entry, looked up, one chain of several): as the sequence (P28223 whole entry) above
T2 sequence (P41595 whole entry): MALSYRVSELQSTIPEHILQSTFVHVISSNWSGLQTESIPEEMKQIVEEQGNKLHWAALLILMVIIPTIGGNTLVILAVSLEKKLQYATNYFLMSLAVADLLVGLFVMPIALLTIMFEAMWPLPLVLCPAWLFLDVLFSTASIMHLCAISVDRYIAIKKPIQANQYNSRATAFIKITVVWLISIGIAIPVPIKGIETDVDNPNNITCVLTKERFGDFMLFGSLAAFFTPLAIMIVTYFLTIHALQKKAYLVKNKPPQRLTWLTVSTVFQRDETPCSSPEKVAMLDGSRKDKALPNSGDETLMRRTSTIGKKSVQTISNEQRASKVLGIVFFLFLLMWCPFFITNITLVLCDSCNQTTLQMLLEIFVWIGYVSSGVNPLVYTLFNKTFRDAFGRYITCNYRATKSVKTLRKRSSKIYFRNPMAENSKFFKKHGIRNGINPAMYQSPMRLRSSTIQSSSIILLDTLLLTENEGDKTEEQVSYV

| IC50 [7] | IC50 [8] | IC50 [9] | SMILES | Ratio Ki [1] | Ratio Ki [2] | Ki [3] | Ki [4] | Ratio Ki [5] | Ki [6] |
| --- | --- | --- | --- | --- | --- | --- | --- | --- | --- |
| – | – | – | COc1cc2c(cc1OC(C)C)C[C@H]1c3c(cc(OC)c(OC)c3-2)CCN1C | 16.7 | 1.3 | 0.559 µM | 0.045 µM | 0.1 | – |
| – | – | – | COc1cc2c(cc1OCc1ccccc1)C[C@H]1c3c(cc(OC)c(OC)c3-2)CCN1C | 1.1 | 1.2 | 0.179 µM | 0.192 µM | 1.1 | – |
| – | – | – | COc1cc2c(cc1OC)-c1c(OC)c(OC3CCCCC3)cc3c1[C@H](C2)N(C)CC3 | 5.8 | 4.7 | 0.113 µM | 0.092 µM | 0.8 | 0.534 µM |
| – | – | – | COc1cc2c(cc1OC)-c1c(OC)c(OC)cc3c1[C@H](C2)N(C)CC3 [GLAUCINE] | 8.1 | 2.9 | 0.328 µM | 0.119 µM | 0.4 | – |
| – | – | – | COc1cc2c(cc1OC1CCCCC1)C[C@H]1c3c(cc(OC)c(OC)c3-2)CCN1C | 10.8 | 0.9 | 0.614 µM | 0.053 µM | 0.1 | – |
| 0.162 µM | 3 µM | 0.436 µM | COc1cc2c(cc1OC)-c1c(OC)c(OCc3ccc(Br)cc3)cc3c1[C@H](C2)N(C)CC3 | 0.06 | 0.9 | 0.023 µM | 0.359 µM | 16 | 0.02 µM |
| – | – | – | CCCCCCOc1cc2c3c(c1OC)-c1cc(OC)c(OC)cc1C[C@@H]3N(C)CC2 | 2 | 2.6 | 0.082 µM | 0.105 µM | 1 | 0.213 µM |
| – | – | – | CCC(C)Oc1cc2c(cc1OC)-c1c(OC)c(OC)cc3c1[C@H](C2)N(C)CC3 (some centres undefined) | 17.1 | 1.6 | 0.238 µM | 0.022 µM | 0.1 | – |
| – | – | – | COc1cc2c(cc1OCCF)C[C@H]1c3c(cc(OC)c(OC)c3-2)CCN1C | 24.1 | 2.1 | 0.542 µM | 0.048 µM | 0.1 | – |
| – | – | – | CCOc1cc2c(cc1OC)-c1c(OC)c(OC)cc3c1[C@H](C2)N(C)CC3 | 10.2 | 1.9 | 0.425 µM | 0.08 µM | 0.2 | – |
| – | – | – | CCCCCCOc1cc2c(cc1OC)-c1c(OC)c(OC)cc3c1[C@H](C2)N(C)CC3 | 10.8 | 0.9 | 0.614 µM | 0.053 µM | 0.1 | – |
| – | – | – | CCCC(C)Oc1cc2c(cc1OC)-c1c(OC)c(OC)cc3c1[C@H](C2)N(C)CC3 (some centres undefined) | 24.4 | 1.1 | 0.219 µM | 0.01 µM | 0.05 | – |
| – | – | – | CCOc1cc2c3c(c1OC)-c1cc(OC)c(OC)cc1C[C@@H]3N(C)CC2 | 3.3 | 1.5 | 0.34 µM | 0.153 µM | 0.5 | 0.512 µM |
| – | – | – | C=CCOc1cc2c(cc1OC)-c1c(OC)c(OC)cc3c1[C@H](C2)N(C)CC3 | 7 | 0.7 | 0.543 µM | 0.055 µM | 0.1 | – |
| – | – | – | COc1cc2c(cc1OC)-c1c(OC)c(OCCF)cc3c1[C@H](C2)N(C)CC3 | – | – | 1.13 µM | 0.629 µM | 0.6 | – |
| – | – | – | Cn1ccc2cc3c(cc21)CCN3C(=O)Nc1cccnc1 | – | – | – | 0.02 µM | – | – |

| IC50 [7] | IC50 [8] | IC50 [9] | SMILES | Ratio Ki [1] | Ratio Ki [2] | Ki [3] | Ki [4] | Ratio Ki [5] | Ki [6] |
| --- | --- | --- | --- | --- | --- | --- | --- | --- | --- |
| – | – | – | CCCCC(C)Oc1cc2c3c(c1OC)-c1cc(OC)c(OC)cc1C[C@@H]3N(C)CC2 (some centres undefined) | 1.9 | 2.2 | 0.072 µM | 0.082 µM | 1 | 0.155 µM |
| – | – | – | Cc1nc2sccn2c(=O)c1CCN1CCC(=C(c2ccc(F)cc2)c2ccc(F)cc2)CC1 [RITANSERIN] | – | – | 0.0008 µM | – | – | – |
| – | – | – | CCCCOc1cc2c(cc1OC)-c1c(OC)c(OC)cc3c1[C@H](C2)N(C)CC3 | 4.8 | 0.6 | 0.45 µM | 0.056 µM | 0.1 | – |
| 0.137 µM | 1.23 µM | 0.161 µM | COc1cc2c(cc1OC)-c1c(OC)c(OCc3ccccc3)cc3c1[C@H](C2)N(C)CC3 | 0.5 | 5.5 | 0.004 µM | 0.048 µM | 12 | 0.022 µM |
| – | – | – | CCC(C)Oc1cc2c3c(c1OC)-c1cc(OC)c(OC)cc1C[C@@H]3N(C)CC2 (some centres undefined) | 3.1 | 3.1 | 0.094 µM | 0.096 µM | 1 | 0.293 µM |
| – | – | – | CCCCOc1cc2c3c(c1OC)-c1cc(OC)c(OC)cc1C[C@@H]3N(C)CC2 | 12.5 | 4 | 0.047 µM | 0.015 µM | 0.3 | 0.187 µM |
| – | – | – | COc1cc2c(cc1OC)-c1c(OC)c(OC(C)C)cc3c1[C@H](C2)N(C)CC3 | 3.8 | 3.1 | 0.19 µM | 0.156 µM | 0.8 | 0.587 µM |
| – | – | – | COc1cc2c(cc1OC)-c1c(OC)c(OCC3CC3)cc3c1[C@H](C2)N(C)CC3 | 6 | 2.3 | 0.104 µM | 0.04 µM | 0.4 | 0.238 µM |
| – | – | – | COc1cc2c(cc1OCC1CC1)C[C@H]1c3c(cc(OC)c(OC)c3-2)CCN1C | 20.1 | 1.1 | 0.533 µM | 0.029 µM | 0.05 | – |
| – | – | – | CCCC(C)Oc1cc2c3c(c1OC)-c1cc(OC)c(OC)cc1C[C@@H]3N(C)CC2 (some centres undefined) | 9.8 | 6.6 | 0.037 µM | 0.025 µM | 0.7 | 0.244 µM |
| – | – | – | CCCCCOc1cc2c(cc1OC)-c1c(OC)c(OC)cc3c1[C@H](C2)N(C)CC3 | 4.2 | 0.5 | 0.504 µM | 0.057 µM | 0.1 | – |
| – | – | – | C=CCOc1cc2c3c(c1OC)-c1cc(OC)c(OC)cc1C[C@@H]3N(C)CC2 | 6.3 | 2 | 0.05 µM | 0.016 µM | 0.3 | 0.101 µM |
| – | – | – | COc1cc2c(cc1OCc1ccc(Br)cc1)C[C@H]1c3c(cc(OC)c(OC)c3-2)CCN1C | 10 | 1.5 | 0.281 µM | 0.042 µM | 0.1 | – |
| – | – | – | CCCCCOc1cc2c3c(c1OC)-c1cc(OC)c(OC)cc1C[C@@H]3N(C)CC2 | 2.9 | 3.5 | 0.04 µM | 0.047 µM | 1 | 0.138 µM |
| – | – | – | CCCCC(C)Oc1cc2c(cc1OC)-c1c(OC)c(OC)cc3c1[C@H](C2)N(C)CC3 (some centres undefined) | 13.5 | 1.6 | 0.274 µM | 0.033 µM | 0.1 | – |
